# Key:
# Test in all cases: relative viability (nuclei count vs DMSO), 5 days (fraction); higher = more cells survive
# AZ628 + Linsitinib = compound: CC1=C(C=C(C=C1)NC(=O)C2=CC(=CC=C2)C(C)(C)C#N)NC3=CC4=C(C=C3)N=CN(C4=O)C [AZ628] + C[C@]1(O)C[C@@H](c2nc(-c3ccc4ccc(-c5ccccc5)nc4c3)c3c(N)nccn32)C1 [Linsitinib] (partner 1 µM)
# Summary of the method: (§1)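 One day after seeding in 1536-well plates, lung cancer cell lines were dosed by pin tool. Dosing was either single-drug or a fixed anchor-drug dose plus five library-drug doses (not always all listed) in √10 steps. After 5 days, nuclei were stained in one fix-and-stain step and counted on 4× images, and relative viability is the nuclei count of treated wells over that of vehicle wells, given as the median of duplicate plates.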
# AZ628 + Vorinostat = compound: CC1=C(C=C(C=C1)NC(=O)C2=CC(=CC=C2)C(C)(C)C#N)NC3=CC4=C(C=C3)N=CN(C4=O)C [AZ628] + O=C(CCCCCCC(=O)Nc1ccccc1)NO [Vorinostat] (partner 1 µM)
# Summary of the method: as §1
# [1] = compound: C[As](C)SC[C@H](NC(=O)CC[C@H](N)C(=O)O)C(=O)NCC(=O)O [Darinaparsin] + C[C@]1(O)C[C@@H](c2nc(-c3ccc4ccc(-c5ccccc5)nc4c3)c3c(N)nccn32)C1 [Linsitinib] (partner 1 µM)
# Summary of the method: as §1
# AZ628 + Palbociclib = compound: CC1=C(C=C(C=C1)NC(=O)C2=CC(=CC=C2)C(C)(C)C#N)NC3=CC4=C(C=C3)N=CN(C4=O)C [AZ628] + CC(=O)c1c(C)c2cnc(Nc3ccc(N4CCNCC4)cn3)nc2n(C2CCCC2)c1=O [Palbociclib] (partner 0.5 µM)
# Summary of the method: as §1
Cell Line,relative viability (AZ628 + Linsitinib; first compound 0.08 µM),relative viability (AZ628 + Linsitinib; first compound 0.253 µM),relative viability (AZ628 + Linsitinib; first compound 0.8 µM),relative viability (AZ628 + Linsitinib; first compound 2.53 µM),relative viability (AZ628 + Linsitinib; first compound 8 µM),relative viability (AZ628 + Vorinostat; first compound 0.08 µM),relative viability (AZ628 + Vorinostat; first compound 0.253 µM),relative viability (AZ628 + Vorinostat; first compound 0.8 µM),relative viability (AZ628 + Vorinostat; first compound 2.53 µM),relative viability (AZ628 + Vorinostat; first compound 8 µM),relative viability ([1]; first compound 0.08 µM),relative viability ([1]; first compound 0.8 µM),relative viability ([1]; first compound 2.53 µM),relative viability ([1]; first compound 8 µM),relative viability (AZ628 + Palbociclib; first compound 0.08 µM),relative viability (AZ628 + Palbociclib; first compound 0.253 µM),relative viability (AZ628 + Palbociclib; first compound 0.8 µM),relative viability (AZ628 + Palbociclib; first compound 2.53 µM),relative viability (AZ628 + Palbociclib; first compound 8 µM)
NCI-H1793,1.32,1.11,1.09,0.687,0.602,0.969,0.632,0.835,0.602,0.484,0.919,1.01,0.769,1.22,0.35,0.403,0.305,0.266,0.255
HARA,0.774,0.847,0.888,0.934,0.309,0.706,0.453,0.405,0.399,0.183,1.38,0.852,0.75,1.19,0.216,0.3,0.223,0.275,0.222
NCI-H2347,0.719,0.928,0.741,0.792,0.639,0.46,0.642,0.447,0.439,0.335,1,0.942,0.911,1.03,0.468,0.352,0.266,0.403,0.344
ABC-1,0.857,0.81,0.854,0.719,0.799,1.26,0.789,1.27,0.955,1.07,0.801,0.849,0.735,1.04,0.795,0.586,0.5,0.884,0.712
NCI-H2342,,,,,,0.928,0.692,0.81,0.753,0.825,,,,,0.544,0.513,0.562,0.511,0.537
NCI-H2126,0.762,0.746,0.776,0.721,0.664,0.862,0.786,0.642,0.729,0.703,0.815,0.756,0.589,0.803,0.351,0.325,0.323,0.383,0.32
HOP-62,1.09,0.919,1.06,1.17,0.535,0.641,0.701,0.641,0.432,0.289,1.25,0.94,0.899,1.02,0.49,0.473,0.491,0.492,0.314
NCI-H2085,0.851,0.939,0.972,0.879,0.781,0.845,0.788,0.891,0.826,0.736,0.935,0.864,0.889,1.05,0.478,0.445,0.496,0.493,0.43
NCI-H1944,1.21,1.14,0.987,0.876,0.703,0.613,0.547,0.508,0.468,0.444,1.14,1.3,1.23,1.35,0.359,0.312,0.305,0.311,0.229
EMC-BAC-2,0.77,0.723,0.782,0.744,0.762,0.878,0.57,0.642,0.562,0.449,0.862,0.758,0.773,0.965,0.521,0.55,0.535,0.519,0.554
NCI-H2228,0.504,0.686,0.622,1.1,0.517,0.697,0.684,0.644,0.507,0.432,0.817,0.702,0.743,0.746,0.763,0.605,0.843,0.737,0.619
A-427,1,0.898,0.839,0.857,0.496,1.02,0.811,0.82,0.787,0.437,1.2,1.09,1.13,1.12,0.475,0.446,0.497,0.475,0.427
EPLC-272H,1.26,1.13,1.12,1.08,0.834,0.557,0.518,0.4,0.332,0.274,1.2,1.31,0.956,1.17,0.32,0.345,0.292,0.317,0.25
A549,0.571,0.542,0.469,0.606,0.39,,,,,,0.756,0.612,0.389,0.632,,,,,
NCI-H358,0.644,0.622,0.66,0.582,0.398,0.762,0.424,0.386,0.336,0.262,0.753,0.601,0.665,0.68,0.126,0.131,0.136,0.142,0.123
NCI-H2009,1.06,0.973,0.724,1.05,0.358,0.595,0.783,0.568,0.612,0.405,1.29,1.18,1.13,1.15,0.201,0.177,0.141,0.125,0.174
HCC-827,0.979,1.01,1.01,0.973,0.918,0.963,0.795,0.906,0.921,0.552,1.01,0.93,0.965,1.09,0.474,0.456,0.357,0.487,0.311
NCI-H322M,1.05,0.939,1.01,0.854,0.662,1.03,0.856,0.989,0.937,0.816,1.05,0.998,0.736,0.956,0.513,0.519,0.466,0.505,0.449
NCI-H1755,0.993,0.956,0.941,0.937,0.883,0.78,0.779,0.84,0.755,0.679,1.07,0.969,1.02,1.13,0.449,0.461,0.446,0.435,0.397
LU99A,0.485,0.444,0.686,0.678,0.274,0.511,0.473,0.496,0.52,0.33,0.618,0.633,0.475,0.581,0.366,0.368,0.381,0.442,0.369

Cell Line,relative viability (AZ628 + Linsitinib; first compound 0.08 µM),relative viability (AZ628 + Linsitinib; first compound 0.253 µM),relative viability (AZ628 + Linsitinib; first compound 0.8 µM),relative viability (AZ628 + Linsitinib; first compound 2.53 µM),relative viability (AZ628 + Linsitinib; first compound 8 µM),relative viability (AZ628 + Vorinostat; first compound 0.08 µM),relative viability (AZ628 + Vorinostat; first compound 0.253 µM),relative viability (AZ628 + Vorinostat; first compound 0.8 µM),relative viability (AZ628 + Vorinostat; first compound 2.53 µM),relative viability (AZ628 + Vorinostat; first compound 8 µM),relative viability ([1]; first compound 0.08 µM),relative viability ([1]; first compound 0.8 µM),relative viability ([1]; first compound 2.53 µM),relative viability ([1]; first compound 8 µM),relative viability (AZ628 + Palbociclib; first compound 0.08 µM),relative viability (AZ628 + Palbociclib; first compound 0.253 µM),relative viability (AZ628 + Palbociclib; first compound 0.8 µM),relative viability (AZ628 + Palbociclib; first compound 2.53 µM),relative viability (AZ628 + Palbociclib; first compound 8 µM)
HCC-44,0.701,0.646,0.672,0.678,0.666,1.16,1.17,1.15,1.02,0.491,0.841,0.636,0.441,0.86,1.01,0.942,0.96,0.958,1.15
EBC-1,0.87,0.843,0.999,0.773,0.885,,,,,,1.12,0.942,0.864,1.15,,,,,
NCI-H647,1.36,1.27,1.07,1.19,1.05,0.54,0.845,0.524,0.833,0.488,1.84,1.1,1.17,1.53,0.493,0.43,0.322,0.357,0.289
NCI-H1734,0.853,0.794,0.804,0.759,0.496,0.923,0.773,0.761,0.772,0.463,1.23,0.917,0.674,0.932,0.367,0.301,0.299,0.319,0.225
NCI-H1993,0.761,0.59,0.716,0.824,0.711,0.751,0.774,0.812,0.62,0.547,0.65,0.7,0.699,0.695,0.685,0.548,0.496,0.595,0.266
NCI-H23,0.562,0.481,0.28,0.376,0.32,0.709,0.555,0.524,0.404,0.333,0.661,0.635,0.482,0.685,0.476,0.551,0.347,0.23,0.265
NCI-H1355,0.846,0.93,0.765,0.806,0.655,0.69,0.623,0.581,0.598,0.418,0.805,0.746,0.686,0.838,0.411,0.397,0.388,0.373,0.294
NCI-H2170,,,,,,0.804,0.833,0.786,0.837,0.905,,,,,0.413,0.349,0.381,0.418,0.424
NCI-H1703,0.404,0.328,0.219,0.209,0.201,,,,,,1.42,0.774,0.797,0.799,,,,,
NCI-H1563,1.3,1.18,1.23,1.29,1.29,,,,,,1.23,1.14,1.21,1.3,,,,,
NCI-H596,1.03,1.12,0.982,1.1,1.22,0.559,0.594,0.69,0.686,0.682,1.3,0.934,0.928,1.27,,,,,
Calu-6,1.05,0.859,0.401,0.673,0.153,,,,,,1.06,1.06,0.815,1.05,,,,,
SW 900,,,,,,0.622,0.463,0.573,0.426,0.534,,,,,0.595,0.542,0.537,0.555,0.497
NCI-H1299,0.987,1.04,0.993,0.91,0.579,,,,,,1.1,1,0.912,1.2,,,,,
NCI-H522,,,,,,0.924,0.891,0.95,0.82,0.695,,,,,0.947,0.954,0.842,1.04,0.75
NCI-H1650,,,,,,0.733,0.763,0.582,0.505,0.562,,,,,0.471,0.372,0.335,0.302,0.42
ChaGo-K-1,,,,,,0.773,0.75,0.753,0.754,0.743,,,,,0.993,0.934,0.892,0.986,1.02
NCI-H1648,,,,,,0.544,0.372,0.333,0.375,0.323,,,,,0.264,0.268,0.224,0.253,0.274
NCI-H1792,0.583,0.54,0.435,0.48,0.339,,,,,,0.571,0.488,0.402,0.536,0.66,0.632,0.52,0.558,0.388
IA-LM,0.761,0.711,0.509,0.353,0.252,1.01,0.962,0.657,0.722,0.21,0.949,0.8,0.533,0.681,,,,,

# Reference: the supplement of paper PMC10307832
